Tested on: experimental animal plasma
Assay: In-vitro Prothrombin Time (PT) Test
Format: biochemical
Settings: for Prothrombin Time: coagulant ingredient 1 weight % in water, 0.05 mL sample + 0.1 mL plasma, 37° C., thromboplastin added, mean of 10 repeats
Protocol: An In-vitro Prothrombin Time (PT) Test has been designed to test the coagulant efficacy (see Luz, L. et at., International Journal of Biological Macromolecules, 58 (2013), p. 31-36). […] The experimental methodology used was: […] When testing the “Toothpastes” in Table 2, below, a toothpaste slurry was prepared by mixing 1 part of the toothpaste under test with 2 parts DI water (all parts being parts by weight); then the supernatant was obtained by centrifuging the slurry for 20 mins at 8000 rpm. 0.1 mL of experimental animal plasma was placed in each testing tube (animal blood samples used in the experiment were waste products, and the animals were otherwise used for food). 0.05 mL of the test samples (0.05 mL of DI water or saline solution in control group) were added to separate tubes and mixed with the plasma. The mixtures were then heated in a water bath at 37° C. for 3 min, then 0.2 mL of thromboplastin (which had been preheated to 37° C.) was added to each testing tube and the contents mixed. A stopwatch was started immediately upon adding the thromboplastin to record the coagulation time (Prothrombin Time).

| SMILES | Prothrombin Time [s] | clotting time compared with the controls (DI water and saline solution) (ingredient 1 weight % in water) | difference in clotting time between tranexamic acid and 4-(aminomethyl) benzoic acid (ingredients 1 weight % in water) |
| --- | --- | --- | --- |
| NCc1ccc(C(=O)O)cc1 [4-(aminomethyl)benzoic acid] | 11.14 | significantly lower clotting time than the controls | No significant difference |
| NC[C@H]1CC[C@H](C(=O)O)CC1 [Tranexamic acid, tranexamic acid, reference compound] | 11.66 | – | – |

From patent US20170042780A1, “DENTIFRICE COMPOSITION WITH GUM BLEEDING RELIEF EFFICACY” (COLGATE-PALMOLIVE COMPANY, priority 2015, published 2017)
